Where “and” joins values, the source holds several entries; their conditions need not be identical. Identical values can stand only once. Calls of active or inactive are those of the source.

One experiment has as its target Cytochrome P450 2C19 (Homo sapiens, UniProt P33261). Put plainly: Cytochrome panel assay with activity outcomes. Panel member name: p450-cyp2c19 Compounds with AC50 equal or less than 10 uM are considered active. The class given is functional. Particulars: read-out: AC50.
In the next experiment the target is Cytochrome P450 2D6 (Homo sapiens, UniProt P10635).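 Further: CYP2D6 member of a cytochrome P450 panel assay.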
Cytochrome P450 2D6, sequence (P10635 whole entry): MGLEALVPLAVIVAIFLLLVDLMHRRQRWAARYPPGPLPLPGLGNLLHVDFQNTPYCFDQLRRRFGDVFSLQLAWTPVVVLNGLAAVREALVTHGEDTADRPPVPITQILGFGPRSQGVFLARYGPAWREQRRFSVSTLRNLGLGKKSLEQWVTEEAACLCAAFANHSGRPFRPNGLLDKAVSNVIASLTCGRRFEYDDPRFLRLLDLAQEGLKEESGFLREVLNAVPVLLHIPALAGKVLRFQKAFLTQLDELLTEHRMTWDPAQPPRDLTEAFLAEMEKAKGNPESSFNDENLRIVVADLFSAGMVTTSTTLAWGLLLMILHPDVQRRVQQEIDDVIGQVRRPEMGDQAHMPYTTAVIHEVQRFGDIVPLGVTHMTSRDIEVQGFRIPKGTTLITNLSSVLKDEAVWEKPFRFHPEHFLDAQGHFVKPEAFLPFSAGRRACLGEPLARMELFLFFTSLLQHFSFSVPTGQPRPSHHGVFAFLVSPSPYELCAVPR
Experiment [1] addresses FAD-linked sulfhydryl oxidase ALR (Homo sapiens, UniProt P55789). Put plainly: ALR-catalysed DTT oxidation blockers – biochemical, H2O2 detection, luminescence, cherry-pick, dose response (AID 493248).
Experiment [2] addresses Luciferin 4-monooxygenase (Photinus pyralis, UniProt P08659). Put plainly: inhibition of purified Photinus pyralis luciferase – biochemical, luminescence, dose response (AID 1891).
The nature of experiment [3]: Luminescence Cell-Based Dose Confirmation HTS to Identify Inhibitors of Platelet Dense Granule Release. [Related pubchem assays: 1663 (Primary HTS), 1678 (Summary of Project)]. Type of experiment: functional.
The next experiment concerns H9c2. Put plainly: cells. Type of experiment: functional, cell-based. As to conditions: Rattus norvegicus, H9c2, Myocardium.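 Further: confirmatory concentration-response retest of ultra-high-throughput screening hits for modulation of myocardial damage; cell death induced by hydrogen peroxide oxidative stress; compound pretreatment for 60 min then peroxide exposure for 2 h; potency is for protecting the cells against peroxide damage rather than for killing them.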
Experiment [4] has as its target T1, Rac GTPase-activating protein 1 (Homo sapiens, UniProt Q9H0H5).
T1 sequence (Q9H0H5 whole entry): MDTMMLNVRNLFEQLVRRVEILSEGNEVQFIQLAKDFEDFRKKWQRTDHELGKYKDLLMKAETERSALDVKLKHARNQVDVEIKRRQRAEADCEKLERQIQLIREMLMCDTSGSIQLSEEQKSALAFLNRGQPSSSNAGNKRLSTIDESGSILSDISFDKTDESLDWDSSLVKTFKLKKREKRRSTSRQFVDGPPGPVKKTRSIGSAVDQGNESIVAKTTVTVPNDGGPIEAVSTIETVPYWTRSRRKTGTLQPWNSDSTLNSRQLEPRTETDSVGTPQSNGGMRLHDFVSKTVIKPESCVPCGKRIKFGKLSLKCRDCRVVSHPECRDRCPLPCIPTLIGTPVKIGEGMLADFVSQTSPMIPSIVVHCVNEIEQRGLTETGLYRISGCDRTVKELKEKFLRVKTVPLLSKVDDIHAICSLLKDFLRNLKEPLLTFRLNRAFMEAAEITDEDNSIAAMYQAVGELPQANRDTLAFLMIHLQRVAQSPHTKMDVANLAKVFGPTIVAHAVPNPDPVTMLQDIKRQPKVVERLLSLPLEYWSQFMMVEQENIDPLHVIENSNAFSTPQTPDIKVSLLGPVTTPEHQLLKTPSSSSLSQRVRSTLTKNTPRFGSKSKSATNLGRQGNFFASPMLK
The experiment can be described thus: blockers of MgcRacGAP-driven Rac1 GTP hydrolysis – biochemical, ADP Hunter fluorescence, primary and confirmatory, confirmation (AID 624330). Type of experiment: functional.

The target of a further experiment is Cytochrome P450 3A4 (Homo sapiens, UniProt P08684).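 Further: CYP3A4 tested as one member of a cytochrome P450 panel screen.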
Cytochrome P450 3A4, sequence (P08684 whole entry): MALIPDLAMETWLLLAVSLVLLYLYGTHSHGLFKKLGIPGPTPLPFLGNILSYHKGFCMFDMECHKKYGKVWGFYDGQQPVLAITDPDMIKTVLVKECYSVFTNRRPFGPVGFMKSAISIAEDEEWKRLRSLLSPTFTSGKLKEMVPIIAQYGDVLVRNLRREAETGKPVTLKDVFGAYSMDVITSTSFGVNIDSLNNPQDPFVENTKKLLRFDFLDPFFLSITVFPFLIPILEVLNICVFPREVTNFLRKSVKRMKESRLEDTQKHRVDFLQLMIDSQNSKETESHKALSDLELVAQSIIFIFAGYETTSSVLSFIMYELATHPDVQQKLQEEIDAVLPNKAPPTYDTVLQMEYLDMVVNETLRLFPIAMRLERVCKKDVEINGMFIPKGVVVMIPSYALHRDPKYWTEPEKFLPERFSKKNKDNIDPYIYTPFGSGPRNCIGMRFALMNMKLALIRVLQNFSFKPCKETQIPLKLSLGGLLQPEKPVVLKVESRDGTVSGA
Experiment [5] is described as follows: NIH-3T3 fibroblast cytotoxicity, dose response, cytotoxicity control, cell-based, fluorescence, Alamar Blue, secondary assay (AID 2327).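 Further: NIH-3T3 mouse fibroblasts cultured with fluconazole at 8 µg/mL.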 Type of experiment: functional.
Experiment [6] is described as follows: fluconazole-exposed Candida albicans growth modulators – fluorescence, retest, confirmation (AID 2467). Type of experiment: functional, cell-based.
The next experiment has as its target T2, Cytochrome P450 1A2 (Homo sapiens, UniProt P05177).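 Further: PubChem cytochrome P450 panel assay, CYP1A2 panel member.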
T2 sequence (P05177 whole entry): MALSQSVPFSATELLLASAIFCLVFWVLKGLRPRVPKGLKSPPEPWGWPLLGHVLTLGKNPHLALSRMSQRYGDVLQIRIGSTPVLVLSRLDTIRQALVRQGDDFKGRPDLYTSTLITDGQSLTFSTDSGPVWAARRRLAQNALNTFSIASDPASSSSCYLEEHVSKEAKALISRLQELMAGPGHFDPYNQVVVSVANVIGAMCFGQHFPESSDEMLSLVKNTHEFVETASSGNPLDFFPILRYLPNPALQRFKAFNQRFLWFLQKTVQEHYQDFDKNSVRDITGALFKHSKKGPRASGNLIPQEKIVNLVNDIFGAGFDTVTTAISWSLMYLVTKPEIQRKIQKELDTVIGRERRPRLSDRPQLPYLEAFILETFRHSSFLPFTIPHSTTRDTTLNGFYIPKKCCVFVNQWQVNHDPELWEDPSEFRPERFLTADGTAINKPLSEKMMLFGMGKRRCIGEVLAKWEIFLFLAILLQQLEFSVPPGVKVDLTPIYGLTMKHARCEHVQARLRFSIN

Cytochrome P450 2C19, sequence (P33261 whole entry): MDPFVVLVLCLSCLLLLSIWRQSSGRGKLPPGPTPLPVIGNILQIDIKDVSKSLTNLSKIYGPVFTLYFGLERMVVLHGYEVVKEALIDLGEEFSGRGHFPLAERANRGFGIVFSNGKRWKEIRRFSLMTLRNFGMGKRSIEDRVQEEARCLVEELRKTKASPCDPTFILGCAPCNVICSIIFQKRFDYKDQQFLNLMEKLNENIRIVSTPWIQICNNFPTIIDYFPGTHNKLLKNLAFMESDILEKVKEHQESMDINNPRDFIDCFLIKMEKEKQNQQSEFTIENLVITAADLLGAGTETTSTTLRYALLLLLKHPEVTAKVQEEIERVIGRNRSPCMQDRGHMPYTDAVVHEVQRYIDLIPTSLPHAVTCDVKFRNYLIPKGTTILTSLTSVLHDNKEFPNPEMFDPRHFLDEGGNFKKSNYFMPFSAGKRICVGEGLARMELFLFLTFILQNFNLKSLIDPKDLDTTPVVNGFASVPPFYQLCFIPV
Luciferin 4-monooxygenase, sequence (P08659 whole entry): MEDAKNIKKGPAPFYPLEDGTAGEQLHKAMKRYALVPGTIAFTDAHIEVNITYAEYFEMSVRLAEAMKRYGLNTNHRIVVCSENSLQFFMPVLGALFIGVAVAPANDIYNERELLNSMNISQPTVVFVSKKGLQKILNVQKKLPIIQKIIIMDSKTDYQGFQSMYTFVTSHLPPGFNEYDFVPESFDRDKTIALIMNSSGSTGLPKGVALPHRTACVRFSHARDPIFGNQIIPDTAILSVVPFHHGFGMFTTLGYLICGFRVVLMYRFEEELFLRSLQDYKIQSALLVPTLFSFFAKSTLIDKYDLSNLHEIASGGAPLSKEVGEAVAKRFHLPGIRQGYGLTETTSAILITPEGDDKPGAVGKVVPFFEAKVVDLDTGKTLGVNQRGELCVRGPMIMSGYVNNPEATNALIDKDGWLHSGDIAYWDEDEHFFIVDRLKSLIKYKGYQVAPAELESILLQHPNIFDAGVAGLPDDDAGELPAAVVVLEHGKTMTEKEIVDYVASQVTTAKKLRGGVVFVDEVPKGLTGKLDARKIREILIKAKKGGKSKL
FAD-linked sulfhydryl oxidase ALR, sequence (P55789 whole entry): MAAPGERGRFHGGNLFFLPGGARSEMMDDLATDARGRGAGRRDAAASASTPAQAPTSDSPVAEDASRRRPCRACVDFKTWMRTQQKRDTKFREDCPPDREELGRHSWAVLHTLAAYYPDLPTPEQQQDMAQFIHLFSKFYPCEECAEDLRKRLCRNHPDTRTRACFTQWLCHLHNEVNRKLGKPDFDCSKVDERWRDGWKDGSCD

Regarding `COC(=O)[C@@]1(Cc2ccc(OC)cc2)[C@H]2c3cc(C(=O)N(C)C)n(Cc4c(CO)ncc(C)c4O)c3C[C@H]2CN1C(=O)c1ccccc1`, the results for the AC50 on Cytochrome P450 2C19 and at Cytochrome P450 2D6 were 31.6 µM (inconclusive) and 20 µM (inconclusive), respectively. Consider `Clc1ccc(/C=C/c2ncc3ccccn23)cc1`, for which the half-maximal activity concentration (AC50) in [1] was 8170 nM (active). For the molecule `COCC(=O)N1CCC2(CC1)CN(C(=O)Nc1ccccc1)C2`, the AC50 on Cytochrome P450 2D6 is 39.8 µM (inconclusive). As to `C=CCn1c(SCc2cccc(F)c2)nc2cc(C(=O)N3CCC(C(N)=O)CC3)ccc2c1=O`, the half-maximal activity concentration (AC50) in [1] is 2270 nM (active). As for `CCn1c(SCc2cccc(C(=O)O)c2)nnc1-c1ccccc1`, the concentration giving a half-maximal response (EC50) in [2] and in experiment [3] was > 112 µM (not active) each time. As to `c1ccc2nc(N3CCCC3)c(N3CCCC3)nc2c1`, the AC50 in [1] is 34 nM (active). As to `CCOC(=O)c1sc(=S)n(CC)c1NC(=O)C1CC1`, the concentration for a half-maximal effect (EC50) in experiment [2] and in [3] was > 112 µM (not active) in each case. As to `Cc1onc(-c2ccccc2Cl)c1C(=O)N1CCc2ccccc2C1`, the EC50 in [2] and in [3] was > 112 µM (not active) throughout. For `O=C(N/N=C/c1cn(-c2ccccc2)nc1-c1cccnc1)c1ccccc1`, the IC50 with H9c2 was > 79 µM (inactive). On to `Sc1nncn1/N=C/c1ccccn1`, for which, in [1], the AC50 was 3060 nM (active). `C/C(=N\Nc1nc2ccccc2[nH]1)c1ccc(C)o1`: the IC50 in experiment [4] is 69 µM (active). For the same molecule, the AC50 in experiment [1] was 299 nM (active). On to `CCn1c(O)c(/C=N/N=C2CCCC2)c2ccc(C3=NNC(=O)CC3)cc21`, for which, on Cytochrome P450 3A4, the half-maximal activity concentration (AC50) was 7.08 µM (inconclusive). For the same molecule, the IC50 in the experiment with H9c2 was > 79 µM (inactive). Take `Cc1nc(SCc2ccc(Cl)c(Cl)c2)ncc1C(=O)O`: the EC50 in [5] was > 150 µM (inactive); in experiment [6], 780 nM (active). For the same molecule, the concentration at half-maximal activity (AC50) in experiment [1] was 27 nM (active). As for `COc1cccc(Cn2c(=O)c(-c3ccc(F)cc3)nc3cnc(N4CCNCC4)nc32)c1`, the AC50 is 25.1 µM (inconclusive) at Cytochrome P450 1A2, 39.8 µM (inconclusive) on Cytochrome P450 2C19 and 25.1 µM (inconclusive) on Cytochrome P450 2D6. On to `CCOc1c(OC(C)=O)ccc(/C=C/c2ccc3cccc(OC)c3n2)c1[N+](=O)[O-]`, for which the 50% effective concentration (EC50) in experiment [2] was > 112 µM (not active); in experiment [3] it was 17.6 µM (active). For `O=C(O)CC/C=C\C[C@@H]1CO[C@H](c2ccccc2Cl)O[C@@H]1c1ccccc1O`, the AC50 at Cytochrome P450 3A4 is 15.8 µM (inconclusive); at Cytochrome P450 1A2, 39.8 µM (inconclusive); on Cytochrome P450 2D6 it was 20 µM (inconclusive). `COc1cc(-n2c(S)nnc2-c2ccccc2)c(OC)cc1Cl`: in experiment [1], the AC50 was 12300 nM (active).

As for `Oc1c(C(c2cccs2)N2CCOCC2)sc2ncnn12` (stereo unspecified), the EC50 in experiment [2] and in experiment [3] was > 112 µM (not active) in each case. Regarding `O=C(OCc1cc(=O)n2ccsc2n1)c1ccc(O)cc1O`, in the experiment on H9c2, the IC50 was > 79 µM (inactive). Take `O=[N+]([O-])c1c(O)nc(/C=C\c2cccc(F)c2)nc1O`: the AC50 in experiment [1] is 1760 nM (active). On to `COc1cccc(Cn2c(=O)cnc3cncnc32)c1`, for which the AC50 on Cytochrome P450 3A4 was 20 µM (inconclusive); at Cytochrome P450 2C19 it was 25.1 µM (inconclusive); on Cytochrome P450 2D6, 25.1 µM (inconclusive). As to `O=C1CSC(c2ccccn2)N1c1cccc(Cl)c1` (stereo unspecified), the concentration at half-maximal activity (AC50) in [1] is 394 nM (active). Still for that read-out and setting: the result for `O=C(O)c1cccc(S(=O)(=O)Nc2ccc(O)c(Sc3nc4ccccc4s3)c2)c1` reads 176 nM (active). For `C[N+](C)(C)CC[N+]1(C)Cc2c(Cl)c(Cl)c(Cl)c(Cl)c2C1` [CHLORISONDAMINE], the AC50 at Cytochrome P450 2C19 was 5.01 µM (inconclusive); at Cytochrome P450 2D6, 15.8 µM (inconclusive). As for `Brc1ccc(CSc2ccc3nnc(-c4cccnc4)n3n2)cc1`, the IC50 with H9c2 is > 79 µM (inactive). In the case of `CN(C)c1ncc2ncc(=O)n(Cc3ccc(F)cc3)c2n1`, the concentration at half-maximal activity (AC50) at Cytochrome P450 2D6 is 12.6 µM (inconclusive). `CC1CCCC(C)N1C(=O)COC(=O)c1nnc(O)c2ccccc12` (stereo unspecified): the IC50 in the experiment on H9c2 is > 79 µM (inactive). In the case of `O=C(c1ccncc1)N1CCC2(CCCN(c3ccccn3)C2)CC1`, at Cytochrome P450 2D6, the AC50 was 25.1 µM (inconclusive).

As to `Nc1cccc(-c2cn3cccnc3n2)c1`, the AC50 in experiment [1] was 232 nM (active).

`COc1ccc(CCN(C)CCc2ccc(OC)c(OC)c2)cc1OC`: the half-maximal activity concentration (AC50) at Cytochrome P450 3A4 is 15.8 µM (inconclusive) and 10 µM (inconclusive); at Cytochrome P450 2D6 it was 31.6 µM (inconclusive) and 12.6 µM (inconclusive). In the case of `O=C(NCc1ccccc1)C(c1cccnc1)N(C(=O)c1ccccn1)c1ccc(F)cc1` (stereo unspecified), the EC50 in [2] and in experiment [3] was > 112 µM (not active) throughout. Turning to `Cc1cc2[nH]c(=O)c3ccccc3n2n1`, the IC50 in the experiment with H9c2 was > 79 µM (inactive). Take `COc1ccccc1C(=O)COC(=O)Cn1[nH]c(=O)c2ccccc2c1=O`: the IC50 with H9c2 is 18.5 µM (active). `Cc1c(C(=O)NN2CCOCC2)nn(-c2ccc(Cl)cc2Cl)c1-c1ccc(I)cc1`: the half-maximal activity concentration (AC50) at Cytochrome P450 1A2 is 31.6 µM (inconclusive); on Cytochrome P450 2D6, 12.6 µM (inconclusive).

As for `COc1ccccc1CNc1cc(-c2ccc(C(=O)N(C)C)cc2)ncn1`, the AC50 at Cytochrome P450 2D6 is 12.6 µM (inconclusive). `Cc1csc(SCC(=O)Nc2nc(-c3ccccc3)cs2)n1`: the 50% effective concentration (EC50) in experiment [2] and in experiment [3] was > 112 µM (not active) throughout. As for `CCN1CCCC1CNC(=O)CS(=O)(=O)Cc1nc(-c2ccccc2C)oc1C` (stereo unspecified), the concentration for a half-maximal effect (EC50) in experiment [2] was > 112 µM (not active); in experiment [3], 64.8 µM (active). Turning to `COc1ccc(C(=O)Nc2ccc3[nH]ccc3c2)cc1OC`, the concentration for a half-maximal effect (EC50) in experiment [2] and in [3] was > 112 µM (not active) in each case.

`COc1cccc(Nc2nc3ccccc3n3cnnc23)c1`: the IC50 in the experiment with H9c2 was > 79 µM (inactive). Turning to `O=C(OCC(=O)N1CCCCCC1)c1nnc(O)c2ccccc12`, in the experiment on H9c2, the IC50 was > 79 µM (inactive). In the case of `O=C1CN=C(Nc2ccccc2)N1Cc1cccs1`, the AC50 at Cytochrome P450 2D6 is 25.1 µM (inconclusive). On to `COc1ccc(C(=O)COC(=O)Cn2[nH]c(=O)c3ccccc3c2=O)c(OC)c1`, for which, in the experiment with H9c2, the 50% inhibitory concentration (IC50) was 17.5 µM (active). As for `CCc1ccc(-c2cc(C)no2)cc1S(=O)(=O)NCCN1CCC(C)CC1`, the 50% effective concentration (EC50) in [2] and in experiment [3] was > 112 µM (not active) each time. `CN(CCCNC(=O)C1CCC(=O)N1Cc1ccccc1Cl)c1ccccc1` (stereo unspecified): the AC50 on Cytochrome P450 2D6 is 8.91 µM (inconclusive); in experiment [1], 398 nM (active). As for `CC(=O)N1N=C(c2ccncc2)OC12CCCC2`, the concentration giving a half-maximal response (EC50) in [2] and in experiment [3] was > 112 µM (not active) each time.

The values above are taken from ChEMBL document CHEMBL1201862, “PubChem BioAssay data set” (2004).
